Results published in the supplement of paper PMC6125532.
≈ marks a conversion by molar mass, not a printed value.

How the values were obtained:
[1] = tested on: Mycobacterium tuberculosis CRY-16
Method: (§1)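 Resazurin microtiter assay (REMA) MICs of anti-TB drugs against 19 EQA Mycobacterium tuberculosis strains (clinical or proficiency isolates plus H37Rv). Drugs were tested in doubling dilutions. Each value is the consensus of two measurements; where they disagreed the lower value was taken.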

[2] = tested on: Mycobacterium tuberculosis CRY-8; CRY-13
Method: as §1

[3] = tested on: Mycobacterium tuberculosis CRY-12; CRY-24
Method: as §1

[4] = tested on: Mycobacterium tuberculosis CRY-4; CRY-30
Method: as §1

[5] = tested on: Mycobacterium tuberculosis CRY-5; CRY-10
Method: as §1

[6] = tested on: Mycobacterium tuberculosis CRY-9; CRY-22
Method: as §1

[7] = tested on: Mycobacterium tuberculosis CRY-2; CRY-25
Method: as §1

[8] = tested on: Mycobacterium tuberculosis CRY-26
Method: as §1

[9] = tested on: Mycobacterium tuberculosis CRY-14
Method: as §1

[10] = tested on: Mycobacterium tuberculosis CRY-23
Method: as §1

[11] = tested on: Mycobacterium tuberculosis CRY-27
Method: as §1

[12] = tested on: Mycobacterium tuberculosis CRY-19
Method: as §1

[13] = tested on: Mycobacterium tuberculosis CRY-6; CRY-29
Method: as §1

[14] = tested on: Mycobacterium tuberculosis CRY-7; CRY-18
Method: as §1

[15] = tested on: Mycobacterium tuberculosis CRY-20
Method: as §1

[16] = tested on: Mycobacterium tuberculosis CRY-1; CRY-17
Method: as §1

[17] = tested on: Mycobacterium tuberculosis CRY-28
Method: as §1

[18] = tested on: Mycobacterium tuberculosis CRY-3; CRY-11
Method: as §1

[19] = tested on: Mycobacterium tuberculosis CRY-15; CRY-21
Method: as §1

MIC (REMA) [1] [µg/mL]	MIC (REMA) [2] [µg/mL]	MIC (REMA) [3] [µg/mL]	MIC (REMA) [4] [µg/mL]	MIC (REMA) [5] [µg/mL]	MIC (REMA) [6] [µg/mL]	MIC (REMA) [7] [µg/mL]	MIC (REMA) [8] [µg/mL]	MIC (REMA) [9] [µg/mL]	MIC (REMA) [10] [µg/mL]	MIC (REMA) [11] [µg/mL]	MIC (REMA) [12] [µg/mL]	MIC (REMA) [13] [µg/mL]	MIC (REMA) [14] [µg/mL]	MIC (REMA) [15] [µg/mL]	MIC (REMA) [16] [µg/mL]	MIC (REMA) [17] [µg/mL]	MIC (REMA) [18] [µg/mL]	MIC (REMA) [19] [µg/mL]	Compound
0.25 (≈ 0.741 µM)	0.25 (≈ 0.741 µM)	0.25 (≈ 0.741 µM)	0.5 (≈ 1.48 µM)	0.25 (≈ 0.741 µM)	0.25 (≈ 0.741 µM)	0.25 (≈ 0.741 µM)	0.25 (≈ 0.741 µM)	0.03 (≈ 0.0889 µM)	0.25 (≈ 0.741 µM)	0.25 (≈ 0.741 µM)	0.06 (≈ 0.178 µM)	0.125 (≈ 0.371 µM)	0.25 (≈ 0.741 µM)	0.125 (≈ 0.371 µM)	0.25 (≈ 0.741 µM)	0.125 (≈ 0.371 µM)	0.5 (≈ 1.48 µM)	0.25 (≈ 0.741 µM)	CC(=O)NC[C@H]1CN(c2ccc(N3CCOCC3)c(F)c2)C(=O)O1 [Linezolid]
1 (≈ 2.06 µM)	2 (≈ 4.13 µM)	> 32	2 (≈ 4.13 µM)	0.5 (≈ 1.03 µM)	1 (≈ 2.06 µM)	1 (≈ 2.06 µM)	1 (≈ 2.06 µM)	> 32	0.5 (≈ 1.03 µM)	2 (≈ 4.13 µM)	0.5 (≈ 1.03 µM)	1 (≈ 2.06 µM)	> 32	1 (≈ 2.06 µM)	1 (≈ 2.06 µM)	0.5 (≈ 1.03 µM)	2 (≈ 4.13 µM)	2 (≈ 4.13 µM)	NC[C@H]1O[C@H](O[C@H]2[C@H](O)[C@@H](O[C@H]3O[C@H](CO)[C@@H](O)[C@H](N)[C@H]3O)[C@H](N)C[C@@H]2N)[C@H](O)[C@@H](O)[C@@H]1O [Kanamycin]

Continued, compound first:

Compound	MIC (REMA) [1] [µg/mL]	MIC (REMA) [2] [µg/mL]	MIC (REMA) [3] [µg/mL]	MIC (REMA) [4] [µg/mL]	MIC (REMA) [5] [µg/mL]	MIC (REMA) [6] [µg/mL]	MIC (REMA) [7] [µg/mL]	MIC (REMA) [8] [µg/mL]	MIC (REMA) [9] [µg/mL]	MIC (REMA) [10] [µg/mL]	MIC (REMA) [11] [µg/mL]	MIC (REMA) [12] [µg/mL]	MIC (REMA) [13] [µg/mL]	MIC (REMA) [14] [µg/mL]	MIC (REMA) [15] [µg/mL]	MIC (REMA) [16] [µg/mL]	MIC (REMA) [17] [µg/mL]	MIC (REMA) [18] [µg/mL]	MIC (REMA) [19] [µg/mL]
COc1c(N2C[C@@H]3CCCN[C@@H]3C2)c(F)cc2c(=O)c(C(=O)O)cn(C3CC3)c12 [Moxifloxacin]	0.03 (≈ 0.0747 µM)	0.5 (≈ 1.25 µM)	0.06 (≈ 0.149 µM)	0.06 (≈ 0.149 µM)	8 (≈ 19.9 µM)	0.015 (≈ 0.0374 µM)	0.25 (≈ 0.623 µM)	0.03 (≈ 0.0747 µM)	≤ 0.008	0.03 (≈ 0.0747 µM)	0.06 (≈ 0.149 µM)	0.04 (≈ 0.0996 µM)	0.015 (≈ 0.0374 µM)	0.25 (≈ 0.623 µM)	0.03 (≈ 0.0747 µM)	0.03 (≈ 0.0747 µM)	0.06 (≈ 0.149 µM)	0.03 (≈ 0.0747 µM)	0.06 (≈ 0.149 µM)
COc1nc2ccc(Br)cc2cc1[C@@H](c1ccccc1)[C@@](O)(CCN(C)C)c1cccc2ccccc12 [Bedaquiline]	0.03 (≈ 0.054 µM)	0.06 (≈ 0.108 µM)	0.5 (≈ 0.9 µM)	0.015 (≈ 0.027 µM)	0.015 (≈ 0.027 µM)	0.25 (≈ 0.45 µM)	0.06 (≈ 0.108 µM)	0.03 (≈ 0.054 µM)	≤ 0.004	0.008 (≈ 0.0144 µM)	0.06 (≈ 0.108 µM)	0.015 (≈ 0.027 µM)	0.03 (≈ 0.054 µM)	0.06 (≈ 0.108 µM)	0.03 (≈ 0.054 µM)	0.06 (≈ 0.108 µM)	0.015 (≈ 0.027 µM)	0.12 (≈ 0.216 µM)	2 (≈ 3.6 µM)
CC[C@@H](CO)NCCN[C@@H](CC)CO [Ethambutol]	4 (≈ 19.6 µM)		1 (≈ 4.89 µM)				1 (≈ 4.89 µM)	0.5 (≈ 2.45 µM)	4 (≈ 19.6 µM)	1 (≈ 4.89 µM)	1 (≈ 4.89 µM)	0.5 (≈ 2.45 µM)	1 (≈ 4.89 µM)			4 (≈ 19.6 µM)	0.5 (≈ 2.45 µM)	1 (≈ 4.89 µM)	1 (≈ 4.89 µM)
